This note sets out measurements from PubChem BioAssay AID1259371 (The Scripps Research Institute Molecular Screening Center, 2018).

Each structure is given as a SMILES string. Calls of active or inactive are those of the source. How the calls were made is not given here.

For this experiment, the target named is Microphthalmia-associated transcription factor (Homo sapiens) (UniProt O75030). The experiment can be described thus: compounds blocking human MITF signal – biochemical, AlphaScreen, dose response (AID 1259371). The following applies: AlphaScreen biochemical MITF assay, signal inhibition. Background: Bead proximity is the source of the signal in Alpha formats.
Chain of Microphthalmia-associated transcription factor (Homo sapiens) (O75030 whole entry, looked up): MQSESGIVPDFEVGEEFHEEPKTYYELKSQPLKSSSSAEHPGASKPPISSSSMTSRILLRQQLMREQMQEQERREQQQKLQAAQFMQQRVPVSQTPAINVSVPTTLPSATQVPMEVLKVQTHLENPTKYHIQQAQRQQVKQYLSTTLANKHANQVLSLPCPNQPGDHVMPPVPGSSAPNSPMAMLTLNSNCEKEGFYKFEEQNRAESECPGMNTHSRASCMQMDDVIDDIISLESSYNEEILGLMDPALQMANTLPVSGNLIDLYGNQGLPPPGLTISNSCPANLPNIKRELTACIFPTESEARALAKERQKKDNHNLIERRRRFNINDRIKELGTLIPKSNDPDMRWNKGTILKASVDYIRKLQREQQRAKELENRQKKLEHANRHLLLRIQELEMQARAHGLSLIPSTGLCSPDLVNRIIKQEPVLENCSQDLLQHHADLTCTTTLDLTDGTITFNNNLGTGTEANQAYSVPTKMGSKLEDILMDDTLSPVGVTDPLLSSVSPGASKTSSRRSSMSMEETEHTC
As usually defined, the IC50 is the concentration at which inhibition is half-maximal. As for `N[C@@H](C(=O)N[C@@H]1C(=O)N2C(C(=O)O)=C(CSC3CNNN3)CS[C@H]12)c1ccc(O)cc1` (stereo partly specified) (tested in a mixture with another compound), the IC50 was 324 nM.
For `O=C(Nc1ccc(-c2ccncc2)c(C(F)(F)F)c1)C1COc2ccccc2O1` (stereo unspecified), the IC50 entry is “inactive”.
Take `Cc1ccc(S(=O)(=O)C(CNC(=O)c2ccco2)c2cccs2)cc1` (stereo unspecified): the IC50 result is “inactive”.
Turning to `CN(c1cccc(NS(=O)(=O)c2ccc([N+](=O)[O-])cc2)c1)S(C)(=O)=O`, the IC50 was > 6480 nM (inactive).
Then `O=C1S/C(=C\c2ccco2)C(=O)N1c1ccccc1Cl`, with 809 nM.
As for `O=C(O)c1cc([N+](=O)[O-])cc2c1-c1c(cc([N+](=O)[O-])cc1[N+](=O)[O-])/C2=C/c1ccco1`, the IC50 entry is “inactive”.
Regarding `NC(=O)COC(=O)/C=C/c1ccc(I)o1`, the IC50 entry is “inactive”.
Then `O=Cc1cccn1-c1ccc(C(=O)O)cc1`, with “inactive”; and `CCCOc1ccc(N)cc1N`, with “inactive”; and `C/C(=N\NC(=O)CC1=NNC(=O)C1)c1ccco1`, with “inactive”.
With `Cc1nnc(CNC(=O)c2ccc(-n3cccc3)cc2)o1`, the IC50 entry was “inactive”.
Turning to `Cc1n[nH]c(=O)nc1NNc1ccc(C(=O)O)cc1`, the IC50 result was “inactive”.
The entry for `Cc1noc(C2CN(C(=O)c3ccc(-n4cccc4)cc3)C2)n1` is “inactive”; for `CCOC(=O)C1C2NC(=S)N(CC)C1(C)Oc1ccc(Br)cc12` (stereo unspecified) it is > 6310 nM (inactive); for `S=c1[nH]nc(-c2ccncc2)n1/N=C/C=C/c1ccco1` it is 207 nM.
Take `COc1cccc(COC(=O)Nc2cc(F)c(-c3cn[nH]c3)cc2OCCN(C)C)c1`: the IC50 result was “inactive”.
As to `CCc1ccc(NC(=O)CS(=O)CC(=O)NCCCc2ccccc2)cc1` (stereo unspecified), the IC50 was > 6480 nM (inactive).
For the molecule `CC(Oc1ccc(O)cc1)(P(=O)(O)O)P(=O)(O)O`, the IC50 was 85.5 nM.
On to `Cc1[nH][nH]c(=O)c1C(c1ccc([N+](=O)[O-])o1)c1c(C)[nH][nH]c1=O`, for which the IC50 is > 6480 nM (inactive).
Regarding `Cc1cc(OCCOCCN2CCNCC2)ccc1Cl`, the IC50 is > 6480 nM (inactive).
On to `CCN(CC)C(=S)NC(=O)/C=C/c1ccco1`, for which the IC50 was 89.4 nM.
For the molecule `CC(C)NC(=O)/C(C#N)=C/c1ccc(-c2ccc([N+](=O)[O-])cc2Br)o1`, the IC50 was 314 nM.
On to `COc1cc(OC)c(CN2CCCC(O)C2)cc1Br` (stereo unspecified), for which the IC50 is > 6480 nM (inactive).
`Cc1cc(C)nc(NS(=O)(=O)c2ccc(N3C(=O)C=CC3=O)cc2)n1`: the IC50 is > 2160 nM (inactive).
The entry for `O=C(O)/C=C/c1ccc([N+](=O)[O-])o1` is “inactive”; for `CCOc1cc(-c2ccc(I)o2)cc(=O)c2c(C)oc(C)c12` it is 2.55 nM.
Then `CCC[C@@H]1NC(=O)[C@H]2CN(C(=O)NCc3ccccc3)CCN2C1=O`, with 826 nM.
As to `CCC[C@@H]1NC(=O)[C@H]2CN(C(=O)NC3CCCCC3)CCN2C1=O`, the IC50 is 757 nM.
In the case of `COCCNC(=O)COC(=O)c1cc(-c2ccco2)nc2ccccc12`, the IC50 entry was “inactive”.
Then `O=c1c(O)c(-c2ccc(O)cc2O)oc2cc(O)cc(O)c12`, with “inactive”.
As to `O=C(NCc1ccccc1)N1CCN2C(=O)[C@H]3CCCN3C(=O)[C@H]2C1`, the IC50 entry is “inactive”.
In the case of `Cc1ccn2c(NCC3CCCO3)c(-c3ccc(O)cc3O)nc2c1` (stereo unspecified), the 50% inhibitory concentration (IC50) was 80.9 nM.
Turning to `Cc1oc(C(=O)O)cc1CSCCSCc1cc(C(=O)O)oc1C`, the IC50 is > 2160 nM (inactive).
In the case of `O=C(NCCc1ccc(O)cc1)c1cccc(-c2cccs2)c1`, the IC50 was > 6260 nM (inactive).
Regarding `O=C(Cn1ncn2cccc2c1=O)N1CCc2ccccc2C1`, the IC50 is > 6480 nM (inactive).
The entry for `Cc1[nH][nH]c(=O)c1C(c1ccccc1OCc1ccc(Br)cc1)c1c(C)[nH][nH]c1=O` is “inactive”; for `O=C(NC1CCCCC1)N1CCN2C(=O)[C@@H]3CSCN3C(=O)[C@H]2C1` it is “inactive”.
As to `CCOc1ccccc1N1CCN(Cc2cc(OC)c(O)c([N+](=O)[O-])c2)CC1`, the IC50 was > 6480 nM (inactive).
As for `O=C(OCCCC(=O)N1CCOCC1)c1cc(-c2ccco2)nc2ccccc12`, the IC50 entry is “inactive”.
The entry for `CN(Cc1ccco1)S(=O)(=O)c1ccc2[nH]cc(C(=O)O)c(=O)c2c1` is “inactive”; for `O=[N+]([O-])c1ccc(N/N=C/c2ccco2)c(S(=O)(=O)N2CCOCC2)c1` it is “inactive”.
`C[C@@H](O)[C@@H]1NC(=O)[C@H]2CN(C(=O)NC3CCCCC3)CCN2C1=O`: the IC50 entry is “inactive”.
Consider `O=[N+]([O-])c1c(Br)ccc2c1no[n+]2[O-]`, for which the IC50 entry was “inactive”.
Then `O=C(c1ccncc1)N1C2C=CC(C2)C1(C(F)(F)F)C(F)(F)F` (stereo unspecified), with “inactive”.
`Cc1c(NC(=O)C(C)OC(=O)c2cc3c(s2)CCC3)c(=O)n(-c2ccccc2)n1C` (stereo unspecified): the half-inhibitory concentration (IC50) was 953 nM.
The entry for `O=C(NCc1ccccc1)N1CCN2C(=O)[C@@H]3CCCN3C(=O)[C@H]2C1` is “inactive”; for `Cc1ccc(COc2ccc(/C=N/N=C3\NC(=O)C(CC(=O)O)S3)cc2)cc1` (stereo unspecified) it is “inactive”.
The entry for `O=C(COc1ccccc1C(=O)OC1CCCC1=O)Nc1cccc(C(F)(F)F)c1` (stereo unspecified) is “inactive”; for `O=C(NCCN1CCOCC1)c1cccc(CN(C(=O)c2nc3ccc(-c4cn[nH]c4)cc3s2)C2CC2)c1` it is “inactive”.
With `COc1nccnc1NS(=O)(=O)c1ccc(NC(=O)c2ccc([N+](=O)[O-])c(C)c2)cc1`, the IC50 is > 6480 nM (inactive).
For the molecule `CN(C)/C=C/C=C/C(=O)C1CCC/C(=C\C=C\N(C)C)C1=O` (stereo unspecified), the half-maximal inhibitory concentration (IC50) was 85 nM.
Consider `C=CCc1cc(C)ccc1OCCCCn1ccnc1`, for which the IC50 was > 6480 nM (inactive).
Turning to `CC(C)[C@H]1NC(=O)[C@H]2CN(C(=O)NC3CCCCC3)CCN2C1=O`, the IC50 entry is “inactive”.
With `O=P(O)(O)C(O)(CCNC(=S)Nc1ccccc1)P(=O)(O)O`, the IC50 result was “inactive”.
Then `NC(=O)CSc1ccc(C(N)=O)cc1[N+](=O)[O-]`, with “inactive”; and `Cc1ccc(N[C@@H]2OC[C@@H](O)C(O)C2O)cc1N[C@@H]1OC[C@@H](O)C(O)C1O` (stereo partly specified), with “inactive”.
For the molecule `O=[N+]([O-])c1ccc(Br)c2c1no[n+]2[O-]`, the IC50 entry is “inactive”.
Turning to `O=C(O)COc1ccc(-n2cccc2)cc1`, the IC50 is 324 nM.
Then `CC1=C(C#N)C(c2cc3c(cc2[N+](=O)[O-])OCO3)C2=C(CCCC2=O)N1` (stereo unspecified), with “inactive”; and `O=C(/C=C/c1ccco1)Nc1nnc(-c2ccco2)s1`, with > 6480 nM (inactive); and `NC1(C(Cl)(Cl)Cl)Oc2ccccc2O1`, with 232 nM.
On to `CC(=O)NCC(c1cccs1)S(=O)(=O)c1ccc(C)cc1` (stereo unspecified), for which the IC50 result is “inactive”.
In the case of `O=C(Nc1ccc(N2CCOCC2)cc1)c1ccnc(Nc2ncccn2)c1`, the IC50 entry was “inactive”.
In the case of `O=C(NC1CCCCC1)N1CCN2C(=O)[C@H]3CCCN3C(=O)[C@H]2C1`, the IC50 was 467 nM.
As to `O=C1c2ccc([N+](=O)[O-])cc2C(=O)N1c1cc(Br)c(O)c(Br)c1`, the IC50 is 162 nM.
As to `O=c1[nH]c(/C=C/c2ccco2)nc(O)c1[N+](=O)[O-]`, the IC50 is 284 nM.
The entry for `NC(=O)c1ccc(N=Cc2cc3c(cc2[N+](=O)[O-])OCO3)cc1` is “inactive”; for `CCn1ccnc1CN1CCN(Cc2cccc(OC)c2)C(CCO)C1` (stereo unspecified) it is > 6480 nM (inactive); for `NC(=O)c1ccccc1NC(=S)NC(=O)/C=C/c1ccco1` it is 471 nM.
For `C=CC1=C(C)C2=Cc3c(C=C)c(C)c4[n]3[Sn+2][n]3c(c(C)c(CCC(=O)O)c3=CC3=NC(=C4)C(C)=C3CCC(=O)O)=CC1=N2`, the IC50 entry is “inactive”.
On to `CN(CCC#N)C(=O)COC(=O)c1c2c(nc3ccccc13)/C(=C/c1ccco1)CC2`, for which the IC50 result was “inactive”.
Consider `CCOc1ncccc1C(=O)OCC(=O)Nc1oc(-c2ccco2)c(-c2ccco2)c1C#N`, for which the IC50 is 557 nM.
Turning to `COC(=O)C1=C(C(=O)OC)C2c3ccccc3C=CN2C(C(=O)OC)=C1C(=O)OC` (stereo unspecified), the IC50 is > 4070 nM (inactive).
Turning to `CN1CC(=O)N2CCN(C(=O)NC3CCCCC3)C[C@@H]2C1=O`, the IC50 result was “inactive”.
For `CCOc1cccc(OCC)c2c(C)nc(C)c1-2`, the IC50 was 207 nM.
`N=C1S/C(=C\c2ccco2)C(=O)N1c1nonc1N`: the IC50 is 34 nM.
With `CCC(C)c1ccccc1OCCNCCN(C)C` (stereo unspecified), the IC50 was > 6480 nM (inactive).
Turning to `c1ccc(-c2ccc(OCCCCn3cncn3)cc2)cc1`, the IC50 result is “inactive”.
The entry for `COCCCNC(=O)/C(C#N)=C/c1ccc(OCC(=O)O)c(OC)c1` is “inactive”; for `COc1ccc2c(c1)CC(C(=O)Nc1ccc(-c3cn[nH]c3)cc1OCC(N)=O)CO2` (stereo unspecified) it is “inactive”.
In the case of `CCOC(=O)C1C2NC(=S)N(c3ccc(CC)cc3)C1(C)Oc1c(OCC)cccc12` (stereo unspecified), the IC50 was > 5530 nM (inactive).
Then `CN(C)CCS(=O)c1cc(-c2cn[nH]c2)ccc1NC(=O)[C@@H]1Cc2cc(F)ccc2CN1` (stereo partly specified), with “inactive”; and `Nc1ccc(C(=O)O)c(O)c1`, with 63.5 nM; and `N/C(=N\[N+](=O)[O-])N/N=C\c1ccc(-c2ccc(O)c(C(=O)O)c2)o1`, with 129 nM.
The entry for `O=C(NNC(=S)Nc1ccccc1)C(=O)NNC(=S)Nc1ccccc1` is “inactive”; for `COc1cc(-c2ccnc(N)n2)ccc1NC(=O)[C@H]1COc2ccccc2O1` it is “inactive”; for `Cc1cc(N=Cc2ccc([N+](=O)[O-])o2)ccc1S(=O)(=O)O` it is “inactive”.
Regarding `COc1cc(OC)c(C(=O)OC2CCCC2=O)cc1OC` (stereo unspecified), the IC50 entry was “inactive”.
The entry for `COc1cccc(COC(=O)Nc2ccc(-c3cn[nH]c3)cc2N(C)CCN(C)C)c1` is “inactive”; for `Cc1cccc(C(=O)Nc2c3c(nn2-c2ccc(F)cc2)CSC3)c1` it is > 5530 nM (inactive); for `CN(CCc1ccccn1)Cc1ccc(F)cc1` it is “inactive”.
